Reference: patent publication US9969742B2, “Imidazotriazinone compounds” (Ironwood Pharmaceuticals, Inc., priority 2012, dated 2018)
Where two headings read alike, the source gives them in different places.

Experiments:
Assay type in all cases: biochemical
PDE1A = target: T1, PDE1A (Homo sapiens, UniProt P54750); assay: Phosphodiesterase enzyme screening assay, PDE1A
T1 construct: purchased Reaction Biology Corporation, Malvern, Pa
Method in brief: (§1)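 Enzyme activity is measured as conversion of fluorescent cGMP (4.0 μM) to 5′-GMP after 1 h at R.T. in pH 7.5 HEPES/MgCl2/DTT buffer. Product is separated from substrate by microfluidic mobility shift, and inhibition is derived by comparison with control wells.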

PDE9A2 = target: T2, PDE9A2 (Homo sapiens, UniProt O76083); assay: Phosphodiesterase enzyme screening assay, PDE9A2; details: 4.0 μM cGMP substrate, 1 hour at R.T., read-out: Band (PDE9A2 IC50)
T2 construct: purchased Reaction Biology Corporation, Malvern, Pa
T2 sequence (O76083 1-533 isoform O76083-2): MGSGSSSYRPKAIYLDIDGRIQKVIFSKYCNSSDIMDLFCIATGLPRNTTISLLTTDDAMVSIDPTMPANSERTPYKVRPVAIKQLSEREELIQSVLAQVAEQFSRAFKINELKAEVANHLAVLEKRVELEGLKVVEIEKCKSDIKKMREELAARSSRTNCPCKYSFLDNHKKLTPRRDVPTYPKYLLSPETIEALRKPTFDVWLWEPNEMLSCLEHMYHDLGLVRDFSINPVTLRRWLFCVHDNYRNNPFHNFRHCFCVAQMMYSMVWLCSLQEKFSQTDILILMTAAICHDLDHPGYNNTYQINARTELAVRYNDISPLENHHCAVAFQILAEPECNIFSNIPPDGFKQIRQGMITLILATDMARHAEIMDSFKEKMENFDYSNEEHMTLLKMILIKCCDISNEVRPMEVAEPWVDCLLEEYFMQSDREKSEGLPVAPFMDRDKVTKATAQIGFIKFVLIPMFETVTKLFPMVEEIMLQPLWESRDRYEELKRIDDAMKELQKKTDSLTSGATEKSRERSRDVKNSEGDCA
Method in brief: as §1

PDE1B = target: T3, PDE1B (Homo sapiens, UniProt Q01064); assay: Phosphodiesterase enzyme screening assay, PDE1B
T3 construct: purchased Reaction Biology Corporation, Malvern, Pa
T3 sequence (Q01064 whole entry): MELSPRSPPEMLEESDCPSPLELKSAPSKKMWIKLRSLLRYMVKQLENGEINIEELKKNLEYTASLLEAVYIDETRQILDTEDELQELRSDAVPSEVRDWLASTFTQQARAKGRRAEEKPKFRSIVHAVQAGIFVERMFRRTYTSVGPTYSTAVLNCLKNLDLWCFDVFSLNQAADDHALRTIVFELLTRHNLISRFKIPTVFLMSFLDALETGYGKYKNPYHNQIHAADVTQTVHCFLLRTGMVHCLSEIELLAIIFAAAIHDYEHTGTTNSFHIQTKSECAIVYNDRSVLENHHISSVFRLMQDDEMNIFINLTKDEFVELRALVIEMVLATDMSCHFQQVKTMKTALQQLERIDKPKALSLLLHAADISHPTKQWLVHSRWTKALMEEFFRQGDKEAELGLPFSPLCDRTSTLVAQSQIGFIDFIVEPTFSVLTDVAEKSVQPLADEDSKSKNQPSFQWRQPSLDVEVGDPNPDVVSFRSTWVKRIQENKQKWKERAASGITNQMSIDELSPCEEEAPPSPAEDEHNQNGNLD
Method in brief: as §1

[1] = ratio of IC50 values PDE1A / PDE9A2, value greater than 1 = greater selectivity for PDE9A2
[2] = ratio of IC50 values PDE1B / PDE9A2, value greater than 1 = greater selectivity for PDE9A2
[3] = Table 1, ratio of IC50 values, value greater than 1 indicates greater selectivity for PDE9A2

T1 sequence (P54750 whole entry): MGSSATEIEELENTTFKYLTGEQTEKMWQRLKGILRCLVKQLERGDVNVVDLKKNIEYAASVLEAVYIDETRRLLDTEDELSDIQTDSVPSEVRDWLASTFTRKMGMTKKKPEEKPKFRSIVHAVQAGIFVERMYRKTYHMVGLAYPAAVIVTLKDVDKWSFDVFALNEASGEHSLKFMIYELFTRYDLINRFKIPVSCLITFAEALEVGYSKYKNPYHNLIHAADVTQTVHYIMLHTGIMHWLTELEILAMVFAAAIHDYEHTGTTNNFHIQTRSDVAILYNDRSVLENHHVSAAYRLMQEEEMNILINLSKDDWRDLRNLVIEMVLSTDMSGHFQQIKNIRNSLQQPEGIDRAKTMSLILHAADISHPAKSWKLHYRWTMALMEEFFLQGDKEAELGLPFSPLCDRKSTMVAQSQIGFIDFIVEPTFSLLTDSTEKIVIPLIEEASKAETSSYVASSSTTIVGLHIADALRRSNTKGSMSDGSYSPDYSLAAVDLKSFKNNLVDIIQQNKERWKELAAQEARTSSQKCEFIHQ

SMILES | PDE1A selectivity (versus PDE9A2) (PDE1A; [1]) | IC50 (PDE9A2) [nM] | PDE1B selectivity (versus PDE9A2) (PDE1B; [2]) | PDE1A selectivity (versus PDE9A2) (PDE1A; [3]) | IC50 (PDE9A2; Table 1, 10 concentrations) [nM] | PDE1B selectivity (versus PDE9A2) (PDE1B; [3])
CC1CN(Cc2cc(Cl)cc(C(F)(F)F)c2)CC1c1nn2c(C3CCOCC3)ncc2c(=O)[nH]1 (single isomer, unassigned; (+)) [(+)-2-((3,4-trans)-1-(3-chloro-5-(trifluoromethyl)benzyl)-4-methylpyrrolidin-3-yl)-7-(tetrahydro-2H-pyran-4-yl)imidazo[5,1-f][1,2,4]triazin-4(3H)-one] | 236 | < 1000 | 105 | – | – | –
CC1CN(Cc2cccc(Cl)c2)CC1c1nn2c(C3CCOCC3)ncc2c(=O)[nH]1 (single isomer, unassigned; (+)) [(+)-2-((3,4-trans)-1-(3-chlorobenzyl)-4-methylpyrrolidin-3-yl)-7-(tetrahydro-2H-pyran-4-yl)imidazo[5,1-f][1,2,4]triazin-4(3H)-one] | – | – | – | 470 | < 1000 | 331
CC1CN(Cc2cccc(C3CC3)c2)CC1c1nn2c(C3CCOCC3)ncc2c(=O)[nH]1 (single isomer, unassigned; (+)) [(+)-2-((3,4-trans)-1-(3-cyclopropylbenzyl)-4-methylpyrrolidin-3-yl)-7-(tetrahydro-2H-pyran-4-yl)imidazo[5,1-f][1,2,4]triazin-4(3H)-one] | – | – | – | 703 | < 1000 | 903
COc1cccc(CN2CC(C)C(c3nn4c(C5CCOCC5)ncc4c(=O)[nH]3)C2)c1 (single isomer, unassigned; (+)) [(+)-2-((3,4-trans)-1-(3-methoxybenzyl)-4-methylpyrrolidin-3-yl)-7-(tetrahydro-2H-pyran-4-yl)imidazo[5,1-f][1,2,4]triazin-4(3H)-one] | – | – | – | 1347 | < 1000 | 477
CC1CN(Cc2ccc(Br)cc2)CC1c1nn2c(C3CCOCC3)ncc2c(=O)[nH]1 (single isomer, unassigned; (+)) [(+)-2-((3,4-trans)-1-(4-bromobenzyl)-4-methylpyrrolidin-3-yl)-7-(tetrahydro-2H-pyran-4-yl)imidazo[5,1-f][1,2,4]triazin-4(3H)-one] | – | – | – | 476 | < 1000 | 1105
CC1CN(Cc2ccc(Cl)c(C(F)(F)F)c2)CC1c1nn2c(C3CCOCC3)ncc2c(=O)[nH]1 (single isomer, unassigned; (+)) [(+)-2-((3,4-trans)-1-(4-chloro-3-(trifluoromethyl)benzyl)-4-methylpyrrolidin-3-yl)-7-(tetrahydro-2H-pyran-4-yl)imidazo[5,1-f][1,2,4]triazin-4(3H)-one] | 196 | < 1000 | 406 | – | – | –
CC1CN(Cc2ccc(Cl)c(F)c2)CC1c1nn2c(C3CCOCC3)ncc2c(=O)[nH]1 (single isomer, unassigned; (+)) [(+)-2-((3,4-trans)-1-(4-chloro-3-fluorobenzyl)-4-methylpyrrolidin-3-yl)-7-(tetrahydro-2H-pyran-4-yl)imidazo[5,1-f][1,2,4]triazin-4(3H)-one] | – | – | – | 3575 | < 1000 | 6575
Cc1cc(CN2CC(C)C(c3nn4c(C5CCOCC5)ncc4c(=O)[nH]3)C2)ccc1Cl (single isomer, unassigned; (+)) [(+)-2-((3,4-trans)-1-(4-chloro-3-methylbenzyl)-4-methylpyrrolidin-3-yl)-7-(tetrahydro-2H-pyran-4-yl)imidazo[5,1-f][1,2,4]triazin-4(3H)-one] | 466 | < 1000 | 818 | – | – | –
CC1CN(Cc2ccc(Cl)cc2)CC1c1nn2c(C3CCC(F)(F)CC3)ncc2c(=O)[nH]1 (single isomer, unassigned; (+)) [(+)-2-((3,4-trans)-1-(4-chlorobenzyl)-4-methylpyrrolidin-3-yl)-7-(4,4-difluorocyclohexyl)imidazo[5,1-f][1,2,4]triazin-4(3H)-one] | – | – | – | 595 | < 1000 | 1210
